Test system: corneodesmosine
Experiment: Desquamating activity: immunodetection of corneodesmosine on varnish strippings of dry skin after incubation with product
Format: biochemical
Conditions: 7% by weight in Arlacel/Myrj base, 5 days at 37° C., 70% relative humidity
Protocol: In this test, corneodesmosine is sought by immunodetection after incubation. Corneodesmosine is one of the key markers of desquamation of […]. It is studied on an immunoblot after electrophoresis separation and transfer onto a membrane.
3×3.5 cm rectangles are cut out of varnish strippings performed on the calf area of legs bearing dry skin. They are each treated with 42 mg of product (4 mg/cm^2). Controls and tests are performed in parallel. A blank without product is prepared under the same conditions.
The tests are incubated at 37° C. and 70% relative humidity for 5 days. The controls are stored for 5 days at −20° C. Thus, 5 tests and 5 controls are obtained.
For each of the samples, acetone powders are prepared and weighed out. The proteins are extracted with 100 μl/mg of whole Laemmli buffer. They are assayed according to the Bradford method. The protein content of each sample is adjusted and allows a direct comparison of the various samples. The proteins are separated by SDS-Page electrophoresis on 12% acrylamide gel.
After transferring the proteins onto a PVDF membrane, the immunodetection is performed with the anticorneodesmosine antibody G3619 (Guy Serre) at 1/12500 according to a standard western blot technique. Revelation is performed by chemiluminescence. The bands detected by the Fluor Smax machine (Biorad) are quantified with the quantity-one software (Biorad).

Structure (SMILES)	degradation of corneodesmosine (result in words)
CC(O)C[C@@H]1OC[C@@H](O)[C@H](O)[C@H]1O (stereo partly drawn) [C-β-D-xylopyranoside-2-hydroxypropane]	positive effect
OCC(O)CO [Glycerol]	substantial degradation of corneodesmosine

— patent publication US9421157B2, “Use of C-glycoside derivatives as pro-desquamating active agents” (L'OREAL, priority 2006, dated 2016)
